System: 192522-019-R-J2-PDC complex tumor spheroid viability
Test: Anticancer human tumor 192522-019-R-J2-PDC patient-derived colon adenocarcinoma cell line growth inhibition [POLQ]
Settings: for IC50: curve of first compound; for viability, T/C: stronger effect = lower value
Procedure: Multicellular complex tumor spheroid response to Polymerase (POL) inhibitors (novobiocin, ART-558, RP6685) in combination with a variety of drugs and investigational agents in selected tumor cell lines
The POL inhibitors (novobiocin, ART-558, and RP6685) were evaluated both individually and in combination with standard of care and investigational anticancer small molecules within a complex spheroid model of solid tumors. . Complex spheroids include a stromal component modeled by human endothelial cells (HUVEC) and fibroblasts modeled by human mesenchymal stem cells (MSCs). The concentration ranges selected for each drug and investigational agent were based upon clinically achievable concentrations if the clinical Cmax of the agent was known.
Compounds. The drugs and investigational agents: novobiocin (NSC847541), ART-558 (NSC835418), RP-6685 (NSC848927), peposertib (NSC802822), ceralasertib (NSC780249), elimusertib (NSC800525), camonsertib (NSC841442), AZD-1390 (NSC803789), olaparib (NSC753686), talazoparib (NSC767125), rucaparib (NSC756644), sotorasib (NSC818433), MRTX-1133 (NSC836407), SN-38 (NSC673596), topotecan (NSC609699), epotoside (NSC141540), doxorubicin (NSC123127), gemcitabine (NSC613327), 5-fluorouracil (NSC19893), paclitaxel (NSC125973), vemurafenib (NSC761431), MSA-2 (NSC828583), SN-011 (NSC837082), adavosertib (NSC754352), prexasertib (NSC758257), carboplatin (NSC241240) and oxaliplatin (NSC266046), were obtained from the National Cancer Institute (NCI) Developmental Therapeutics Program Chemical Repository (21). The FDA-approved anticancer drug set is available from the Developmental Therapeutics Program at https://dtp.cancer.gov/organization/dscb/obtaining/. […] The stock solutions were prepared in dimethyl sulfoxide (DMSO, Sigma-Aldrich, St. Louis, MO, cat. D2650), except for the platinum compounds which were prepared in saline (Quality Biological, Gaithersburg, MD, cat. 114-055-101), at 800-fold the tested concentration and stored at -70 degrees C prior to their use. All drugs and investigational agents were tested over a range starting from a high concentration at or near the clinical Cmax and decreasing in half-log increments. If the clinical Cmax for an agent had not been determined, the highest concentration tested was 10 microM, except for SN-38, which was tested at a high concentration of 1 microM.
Cell Culture. All cells were maintained in an incubator at 37 degrees C and 5% CO2 with 95% humidity. The PDC lines were cultured according to standard operating procedures established by the NCI PDMR (https://pdmr.cancer.gov). Table 3 of the manuscript, lists the cell lines along with the number of the three cell types plated to form the mct-spheroids and media for tumor cell growth. After thawing, all PDC lines, except 997537-175-T-J1-PDC and 415267-285-R-J2-PDC, were cultured in Matrigel-coated flasks prepared with a working solution of 1X Ham's F-12 nutrient mix, without supplementation (Thermo Fisher Scientific, cat. 11765054), 100 U/mL penicillin-streptomycin (Thermo Fisher Scientific, cat. 15140122), and 2.5% Matrigel (Corning Inc., Corning, NY, cat. 354248) for the first three passages. The two PDC lines 997537-175-T-J1-PDC and 415267-285-R-J2-PDC were cultured on uncoated flasks. The 857933-349-R-J2-PDC line was cultured in 6C/Colon 1B media containing advanced DMEM/F-12 (Thermo Fisher Scientific, cat. 12634028), 10 mM HEPES (Thermo Fisher Scientific, cat. 15630080), 1X GlutaMAX supplement (Thermo Fisher Scientific, cat. 35050061), 0.1 mg/mL primocin (InvivoGen, San Diego, CA, cat. ant-pm-2), 10% defined fetal bovine serum, heat inactivated (HyClone Laboratories Inc., Logan, UT, cat. SH30070.03HI), 50% L-WRN conditioned media (ATCC, cat. CRL-3276), 1.25 mM N-Acetyl-L-cysteine (Sigma-Aldrich, cat. A9165), 10 mM nicotinamide (Sigma-Aldrich, cat. N0636), 1X B-27 supplement (Thermo Fisher Scientific, cat. 17504044), 1X N-2 supplement (Thermo Fisher Scientific, cat. […]

[1] = second compound 0.0316 µM, first compound 0.0316 µM
[2] = second compound 0.0316 µM, first compound 0.1 µM
[3] = second compound 0.0316 µM, first compound 0.316 µM
[4] = second compound 0.0316 µM, first compound 1 µM
[5] = second compound 0.0316 µM, first compound 3.16 µM
[6] = second compound 0.0316 µM, first compound 10 µM
[7] = second compound 0.1 µM, first compound 0.0316 µM
[8] = second compound 0.1 µM, first compound 0.1 µM
[9] = second compound 0.1 µM, first compound 0.316 µM
[10] = second compound 0.1 µM, first compound 1 µM
[11] = second compound 0.1 µM, first compound 3.16 µM
[12] = second compound 0.1 µM, first compound 10 µM
[13] = second compound 0.316 µM, first compound 0.0316 µM
[14] = second compound 0.316 µM, first compound 0.1 µM
[15] = second compound 0.316 µM, first compound 0.316 µM
[16] = second compound 0.316 µM, first compound 1 µM
[17] = second compound 0.316 µM, first compound 3.16 µM
[18] = second compound 0.316 µM, first compound 10 µM
[19] = second compound 1 µM, first compound 0.0316 µM
[20] = second compound 1 µM, first compound 0.1 µM
[21] = second compound 1 µM, first compound 0.316 µM
[22] = second compound 1 µM, first compound 1 µM
[23] = second compound 1 µM, first compound 3.16 µM
[24] = second compound 1 µM, first compound 10 µM
[25] = second compound 3.16 µM, first compound 0.0316 µM
[26] = second compound 3.16 µM, first compound 0.1 µM
[27] = second compound 3.16 µM, first compound 0.316 µM
[28] = second compound 3.16 µM, first compound 1 µM
[29] = second compound 3.16 µM, first compound 3.16 µM
[30] = second compound 3.16 µM, first compound 10 µM
[31] = second compound 10 µM, first compound 0.0316 µM
[32] = second compound 10 µM, first compound 0.1 µM
[33] = second compound 10 µM, first compound 0.316 µM
[34] = second compound 10 µM, first compound 1 µM
[35] = second compound 10 µM, first compound 3.16 µM
[36] = second compound 10 µM, first compound 10 µM
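Also: spheroids exposed to drugs for seven days before reading.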
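For viability, T/C in this document: 100% = DMSO vehicle control viability in luminescence.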

SMILES: CCCS(=O)(=O)Nc1ccc(F)c(C(=O)c2c[nH]c3ncc(-c4ccc(Cl)cc4)cc23)c1F + COC1C(OC(N)=O)C(O)C(Oc2ccc3c(O)c(NC(=O)c4ccc(O)c(CC=C(C)C)c4)c(=O)oc3c2C)OC1(C)C
- IC50 (second compound 0.0316 µM): > 10 µM
- IC50 (second compound 0.1 µM): > 10 µM
- IC50 (second compound 0.316 µM): > 10 µM
- IC50 (second compound 1 µM): > 10 µM
- IC50 (second compound 3.16 µM): > 10 µM
- IC50 (second compound 10 µM): > 10 µM
- viability, T/C [1]: 115%
- viability, T/C [2]: 97.6%
- viability, T/C [3]: 110%
- viability, T/C [4]: 96.9%
- viability, T/C [5]: 124%
- viability, T/C [6]: 97.9%
- viability, T/C [7]: 105%
- viability, T/C [8]: 103%
- viability, T/C [9]: 110%
- viability, T/C [10]: 108%
- viability, T/C [11]: 107%
- viability, T/C [12]: 113%
- viability, T/C [13]: 109%
- viability, T/C [14]: 110%
- viability, T/C [15]: 105%
- viability, T/C [16]: 106%
- viability, T/C [17]: 104%
- viability, T/C [18]: 108%
- viability, T/C [19]: 104%
- viability, T/C [20]: 100%
- viability, T/C [21]: 107%
- viability, T/C [22]: 103%
- viability, T/C [23]: 101%
- viability, T/C [24]: 100%
- viability, T/C [25]: 110%
- viability, T/C [26]: 102%
- viability, T/C [27]: 108%
- viability, T/C [28]: 97.3%
- viability, T/C [29]: 106%
- viability, T/C [30]: 117%
- viability, T/C [31]: 107%
- viability, T/C [32]: 102%
- viability, T/C [33]: 103%
- viability, T/C [34]: 101%
- viability, T/C [35]: 124%
- viability, T/C [36]: 117%

SMILES: CCc1cc2c(N3CCc4c(cc(Cn5ccnc5)cc4-c4cn(C)nc4C(F)(F)F)C3=O)ccnc2c(OC)n1 + COC1C(OC(N)=O)C(O)C(Oc2ccc3c(O)c(NC(=O)c4ccc(O)c(CC=C(C)C)c4)c(=O)oc3c2C)OC1(C)C
- IC50 (second compound 0.0316 µM): > 10 µM
- IC50 (second compound 0.1 µM): > 10 µM
- IC50 (second compound 0.316 µM): > 10 µM
- IC50 (second compound 1 µM): > 10 µM
- IC50 (second compound 3.16 µM): > 10 µM
- IC50 (second compound 10 µM): > 10 µM
- viability, T/C [1]: 98.8%
- viability, T/C [2]: 89.9%
- viability, T/C [3]: 86.5%
- viability, T/C [4]: 89.3%
- viability, T/C [5]: 88.8%
- viability, T/C [6]: 63%
- viability, T/C [7]: 101%
- viability, T/C [8]: 88.9%
- viability, T/C [9]: 93.7%
- viability, T/C [10]: 84.7%
- viability, T/C [11]: 78.5%
- viability, T/C [12]: 67.7%
- viability, T/C [13]: 101%
- viability, T/C [14]: 93.7%
- viability, T/C [15]: 89.9%
- viability, T/C [16]: 90.9%
- viability, T/C [17]: 68.3%
- viability, T/C [18]: 71.2%
- viability, T/C [19]: 101%
- viability, T/C [20]: 94%
- viability, T/C [21]: 85.4%
- viability, T/C [22]: 96.6%
- viability, T/C [23]: 76.7%
- viability, T/C [24]: 67.8%
- viability, T/C [25]: 106%
- viability, T/C [26]: 102%
- viability, T/C [27]: 92%
- viability, T/C [28]: 91.9%
- viability, T/C [29]: 90.5%
- viability, T/C [30]: 68.3%
- viability, T/C [31]: 97.5%
- viability, T/C [32]: 88.7%
- viability, T/C [33]: 95.6%
- viability, T/C [34]: 92.1%
- viability, T/C [35]: 87.3%
- viability, T/C [36]: 74.7%

SMILES: CNCc1ccc(-c2[nH]c3cc(F)cc4c3c2CCNC4=O)cc1 + Cc1cccc(N(C)C(=O)C2C(O)CCN2c2nc(C)cc(C(F)(F)F)c2C#N)c1
- IC50 (second compound 0.0316 µM): > 10 µM
- IC50 (second compound 0.1 µM): > 10 µM
- IC50 (second compound 0.316 µM): > 10 µM
- IC50 (second compound 1 µM): > 10 µM
- IC50 (second compound 3.16 µM): > 10 µM
- IC50 (second compound 10 µM): > 10 µM
- viability, T/C [1]: 109%
- viability, T/C [2]: 96.2%
- viability, T/C [3]: 96.8%
- viability, T/C [4]: 100%
- viability, T/C [5]: 121%
- viability, T/C [6]: 91.2%
- viability, T/C [7]: 103%
- viability, T/C [8]: 104%
- viability, T/C [9]: 112%
- viability, T/C [10]: 108%
- viability, T/C [11]: 101%
- viability, T/C [12]: 111%
- viability, T/C [13]: 101%
- viability, T/C [14]: 113%
- viability, T/C [15]: 111%
- viability, T/C [16]: 103%
- viability, T/C [17]: 106%
- viability, T/C [18]: 102%
- viability, T/C [19]: 108%
- viability, T/C [20]: 115%
- viability, T/C [21]: 103%
- viability, T/C [22]: 112%
- viability, T/C [23]: 104%
- viability, T/C [24]: 110%
- viability, T/C [25]: 113%
- viability, T/C [26]: 113%
- viability, T/C [27]: 102%
- viability, T/C [28]: 102%
- viability, T/C [29]: 122%
- viability, T/C [30]: 110%
- viability, T/C [31]: 107%
- viability, T/C [32]: 106%
- viability, T/C [33]: 112%
- viability, T/C [34]: 107%
- viability, T/C [35]: 113%
- viability, T/C [36]: 108%

Source: PubChem BioAssay AID1963850 (Molecular Pharmacology Branch, DTP, NCI, 2024)
